Experimental data taken from patent US9102648B1, “Bioavailable diacylhydrazine ligands for modulating the expression of exogenous genes via an ecdysone receptor complex” (Intrexon Corporation, priority 2003, dated 2015).
Read-outs that look alike come from different tables or passages of the source.

Tests used:
[1] = target: T1, Bombyx mori EcR (VP16 fusion, CVBE switch construct) (Bombyx mori, UniProt P49881); experiment: Z3 Assay (HEK-293 cells with CVBE and 6XEcRE LacZ, β-galactosidase reporter); details: for Fold Induction, Z3 Assay, 3.3 uM: 3.3 uM ligand; for Fold Induction, Z3 Assay, 3.3 uM / Fold Induction, Z3 Assay, 33 uM: ligand treated / DMSO treated cells; for Fold Induction, Z3 Assay, 33 uM: 33 uM ligand; for Z3 assay Rel Max FI: maximum fold induction at any concentration relative to that of GS-E ligand; for fold induction at 33 µM: HEK293, read-out: Fold Induction, Z3 Assay, 33 uM; for fold induction at 3.3 µM: HEK293, read-out: Fold Induction, Z3 Assay, 3.3 uM
T1 sequence (P49881 86-606): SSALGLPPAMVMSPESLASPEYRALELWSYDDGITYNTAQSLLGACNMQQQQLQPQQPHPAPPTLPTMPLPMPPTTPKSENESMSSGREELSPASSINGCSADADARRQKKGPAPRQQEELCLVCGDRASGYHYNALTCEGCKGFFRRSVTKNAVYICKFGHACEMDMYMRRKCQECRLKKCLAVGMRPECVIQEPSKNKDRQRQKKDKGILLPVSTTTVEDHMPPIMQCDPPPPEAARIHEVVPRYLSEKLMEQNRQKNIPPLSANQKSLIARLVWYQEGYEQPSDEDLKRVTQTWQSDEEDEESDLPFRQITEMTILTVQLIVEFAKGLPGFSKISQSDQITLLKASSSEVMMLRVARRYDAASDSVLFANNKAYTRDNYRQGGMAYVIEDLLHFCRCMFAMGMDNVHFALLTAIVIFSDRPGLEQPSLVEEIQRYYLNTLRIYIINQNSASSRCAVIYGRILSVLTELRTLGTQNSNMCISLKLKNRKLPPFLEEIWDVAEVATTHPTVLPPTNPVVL
T1 sequence (P19793 1-462 partner): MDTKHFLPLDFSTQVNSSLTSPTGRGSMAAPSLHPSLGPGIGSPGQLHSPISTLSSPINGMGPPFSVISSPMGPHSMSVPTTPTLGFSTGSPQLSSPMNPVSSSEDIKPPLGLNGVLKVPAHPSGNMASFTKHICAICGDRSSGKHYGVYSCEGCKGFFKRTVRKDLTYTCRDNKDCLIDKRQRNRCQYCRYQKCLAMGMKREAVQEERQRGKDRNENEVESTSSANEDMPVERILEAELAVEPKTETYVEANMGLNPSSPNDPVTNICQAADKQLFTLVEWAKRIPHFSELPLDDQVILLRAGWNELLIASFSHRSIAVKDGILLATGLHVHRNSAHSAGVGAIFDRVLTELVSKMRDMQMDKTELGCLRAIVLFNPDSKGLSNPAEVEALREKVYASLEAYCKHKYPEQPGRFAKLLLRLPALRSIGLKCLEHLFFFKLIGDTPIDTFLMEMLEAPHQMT

[2] = target: GAL4 DBD-CfEcR(DEF)/VP16AD-MmRXRE (Choristoneura fumiferana, UniProt O77240); experiment: 13B3 Assay (CHO stable cell line, luciferase reporter); details: for Fold Induction, 13B3 Assay, 33 uM: 33 uM ligand; for Fold Induction, 13B3 Assay, 33 uM / Fold Induction, 13B3 Assay, 3.3 uM: RLU ligand treated / RLU DMSO treated cells; for Fold Induction, 13B3 Assay, 3.3 uM: 3.3 uM ligand; for 13B3 assay Rel Max FI: maximum fold induction at any concentration relative to that of GS-E ligand, CHO 13B3 cells; for fold induction at 3.3 µM: read-out: Fold Induction, 13B3 Assay, 3.3 uM
Outline: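 CHO 13B3 clone stably expressing GAL4 DBD–CfEcR(DEF) and VP16AD–MmRXR(DE) with GAL4 RE–luciferase reporter; cells plated 24 h at 37 °C, then treated with ligands (DMSO stocks diluted 300-fold), 8 concentrations 33–0.01 μM.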

[3] = read-out: Z3 assay EC50, HEK-293 Z3 cells, β-galactosidase reporter, average of two wells
[4] = read-out: 13B3 EC50, CHO 13B3 stable cell line, luciferase reporter, 48 h, average of two wells

CCc1c(OC)cccc1C(=O)NN(C(=O)c1ccc(F)cc1)C(C)(C)C [RG-100812]
Fold Induction, Z3 Assay, 3.3 uM ([1]; average of two wells): 1587
Fold Induction, Z3 Assay, 33 uM ([1]; average of two wells): 399
Z3 assay Rel Max FI ([1]; HEK-293 Z3 cells): 0.954
EC50 [1, 3]: 912 nM
Fold Induction, 13B3 Assay, 33 uM ([2]; average of two wells): 202

C=Cc1c(OC)cccc1C(=O)NN(C(=O)c1cc(F)c(Cl)cc1Cl)C(C)(C)C [RG-115534]
Fold Induction, Z3 Assay, 3.3 uM ([1]; average of two wells): 168
Fold Induction, Z3 Assay, 33 uM ([1]; average of two wells): 249
Z3 assay Rel Max FI ([1]; HEK-293 Z3 cells): 0.463
EC50 [1, 3]: 2750 nM
Fold Induction, 13B3 Assay, 33 uM ([2]; average of two wells): 211

CCc1c(OC)cccc1C(=O)NN(C(=O)c1ccccc1[N+](=O)[O-])C(C)(C)C [RG-115330]
Fold Induction, Z3 Assay, 3.3 uM ([1]; average of two wells): 633
Fold Induction, Z3 Assay, 33 uM ([1]; average of two wells): 432
Z3 assay Rel Max FI ([1]; HEK-293 Z3 cells): 0.860
EC50 [1, 3]: 186 nM
Fold Induction, 13B3 Assay, 3.3 uM ([2]; average of two wells): 1995
Fold Induction, 13B3 Assay, 33 uM ([2]; average of two wells): 3577
13B3 assay Rel Max FI [2]: 0.711
EC50 [2, 4]: 5690 nM

CCc1c(OC)cccc1C(=O)NN(C(=O)c1cc(C)cc(C=NO)c1)C(C)(C)C [RG-115625]
Fold Induction, Z3 Assay, 3.3 uM ([1]; average of two wells): 265
Fold Induction, Z3 Assay, 33 uM ([1]; average of two wells): 1559
Z3 assay Rel Max FI ([1]; HEK-293 Z3 cells): 0.950
EC50 [1, 3]: 389 nM
Fold Induction, 13B3 Assay, 3.3 uM ([2]; average of two wells): 3
Fold Induction, 13B3 Assay, 33 uM ([2]; average of two wells): 715
13B3 assay Rel Max FI [2]: 0.931
EC50 [2, 4]: 25300 nM

Cc1c(C(=O)NN(C(=O)c2cc(F)cc(C(F)(F)F)c2)C(C)(C)C)ccc2c1OCCO2 [RG-115169]
Fold Induction, Z3 Assay, 3.3 uM ([1]; average of two wells): 443
Z3 assay Rel Max FI ([1]; HEK-293 Z3 cells): 0.956
EC50 [1, 3]: 347 nM
Fold Induction, 13B3 Assay, 3.3 uM ([2]; average of two wells): 405
13B3 assay Rel Max FI [2]: 0.618
EC50 [2, 4]: 497 nM

Cc1c(Cl)cccc1C(=O)NN(C(=O)c1cccc(Cl)c1)C(C)(C)C [RG-101202]
Fold Induction, Z3 Assay, 3.3 uM ([1]; average of two wells): 195
Fold Induction, Z3 Assay, 33 uM ([1]; average of two wells): 1
EC50 [1, 3]: 1740 nM
Fold Induction, 13B3 Assay, 3.3 uM ([2]; average of two wells): 5
Fold Induction, 13B3 Assay, 33 uM ([2]; average of two wells): 7
13B3 assay Rel Max FI [2]: 0.007
EC50 [2, 4]: 369 nM

CCc1c(OC)cccc1C(=O)NN(C(=O)c1cc(OC)c(O)c(OC)c1)C(C)(C)C [RG-115116]
Fold Induction, Z3 Assay, 3.3 uM ([1]; average of two wells): 276
Z3 assay Rel Max FI ([1]; HEK-293 Z3 cells): 0.960
EC50 [1, 3]: 3310 nM
Fold Induction, 13B3 Assay, 3.3 uM ([2]; average of two wells): 2
13B3 assay Rel Max FI [2]: 1.172
EC50 [2, 4]: > 50000 nM

Cc1c(C(=O)NN(C(=O)c2cc(Cl)nc(Cl)c2)C(C)(C)C)ccc2c1OCCO2 [RG-115536]
Fold Induction, Z3 Assay, 3.3 uM ([1]; average of two wells): 488
Z3 assay Rel Max FI ([1]; HEK-293 Z3 cells): 0.950
EC50 [1, 3]: 126 nM
Fold Induction, 13B3 Assay, 3.3 uM ([2]; average of two wells): 483
13B3 assay Rel Max FI [2]: 0.734
EC50 [2, 4]: 781 nM

CCc1c(OC)cccc1C(=O)NN(C(=O)c1cccc(F)c1)C(C)(C)C [RG-115515]
Fold Induction, Z3 Assay, 3.3 uM ([1]; average of two wells): 1306
Fold Induction, Z3 Assay, 33 uM ([1]; average of two wells): 420
Z3 assay Rel Max FI ([1]; HEK-293 Z3 cells): 0.975
EC50 [1, 3]: 617 nM
Fold Induction, 13B3 Assay, 33 uM ([2]; average of two wells): 1996

CCc1c(OC)cccc1C(=O)NN(C(=O)c1nc(SC)cnc1Cl)C(C)(C)C [RG-115716]
Fold Induction, Z3 Assay, 33 uM ([1]; average of two wells): 66
Fold Induction, 13B3 Assay, 3.3 uM ([2]; average of two wells): 3

COc1cc(OC)cc(C(=O)N(NC(=O)c2cccc(C)c2C)C(C)(C)C)c1 [RG-100764]
Fold Induction, Z3 Assay, 3.3 uM ([1]; average of two wells): 915
Fold Induction, Z3 Assay, 33 uM ([1]; average of two wells): 369
Z3 assay Rel Max FI ([1]; HEK-293 Z3 cells): 0.900
EC50 [1, 3]: 2340 nM
Fold Induction, 13B3 Assay, 33 uM ([2]; average of two wells): 3814

CCC(N(NC(=O)c1cccc(C)c1C)C(=O)c1cccc(C)c1)C(C)(C)C (stereo not shown) [RG-104074]
Fold Induction, Z3 Assay, 3.3 uM ([1]; average of two wells): 189
Fold Induction, Z3 Assay, 33 uM ([1]; average of two wells): 200
Z3 assay Rel Max FI ([1]; HEK-293 Z3 cells): 1.122
EC50 [1, 3]: 307 nM
Fold Induction, 13B3 Assay, 3.3 uM ([2]; average of two wells): 544
Fold Induction, 13B3 Assay, 33 uM ([2]; average of two wells): 5378
13B3 assay Rel Max FI [2]: 0.812
EC50 [2, 4]: 865 nM

Cc1c(C(=O)NN(C(=O)c2cccc(F)c2)C(C)(C)C)ccc2c1OCCO2 [RG-115350]
Fold Induction, Z3 Assay, 3.3 uM ([1]; average of two wells): 499
Z3 assay Rel Max FI ([1]; HEK-293 Z3 cells): 0.935
EC50 [1, 3]: 309 nM
Fold Induction, 13B3 Assay, 3.3 uM ([2]; average of two wells): 450
13B3 assay Rel Max FI [2]: 0.711
EC50 [2, 4]: 795 nM

Cc1cc(C)cc(C(=O)N(NC(=O)c2ccc3c(c2F)COCO3)C(C)(C)C)c1 [RG-115068]
Fold Induction, Z3 Assay, 3.3 uM ([1]; average of two wells): 54
Fold Induction, Z3 Assay, 33 uM ([1]; average of two wells): 802
Z3 assay Rel Max FI ([1]; HEK-293 Z3 cells): 0.804
EC50 [1, 3]: 21000 nM
Fold Induction, 13B3 Assay, 3.3 uM ([2]; average of two wells): 2828
Fold Induction, 13B3 Assay, 33 uM ([2]; average of two wells): 1500
13B3 assay Rel Max FI [2]: 0.722
EC50 [2, 4]: 926 nM

C=CCOCc1c(OC)cccc1C(=O)NN(C(=O)c1cc(C)cc(C)c1)C(C)(C)C [RG-115003, 3,5-dimethyl-benzoic acid N′-(2-allyloxymethyl-3-methoxy-benzoyl)-N-tert-butyl-hydrazide]
fold induction at 33 µM [1]: 1280
fold induction at 33 µM ([2]; read-out: Fold Induction, 13B3 Assay, 33 uM): 301

COc1cccc(C(=O)NN(C(=O)c2cc(C)cc(C)c2)C(C)(C)C)c1CN(C)C [RG-115497, 3,5-dimethyl-benzoic acid N-tert-butyl-N′-(2-dimethylaminomethyl-3-methoxy-benzoyl)-hydrazide]
EC50 [1]: > 50000 nM
fold induction at 3.3 µM [1]: 1
fold induction at 33 µM [1]: 20
Z3 assay Rel Max FI ([1]; HEK-293 Z3 cells): 0.07
EC50 [2]: > 50000 nM
13B3 assay Rel Max FI [2]: 0
fold induction at 3.3 µM [2]: 1

CC(C)(C)N(NC(=O)c1c(F)ccc(F)c1F)C(=O)c1ccc(F)cc1Cl [RG-100620]
Fold Induction, Z3 Assay, 3.3 uM ([1]; average of two wells): 710
Fold Induction, Z3 Assay, 33 uM ([1]; average of two wells): 428
Z3 assay Rel Max FI ([1]; HEK-293 Z3 cells): 0.869
EC50 [1, 3]: 2400 nM
Fold Induction, 13B3 Assay, 33 uM ([2]; average of two wells): 13982

CNCc1c(OC)cccc1C(=O)NN(C(=O)c1cc(C)cc(C)c1)C(C)(C)C [RG-115079, 3,5-dimethyl-benzoic acid N-tert-butyl-N′-(2-methylaminomethyl-3-methoxy-benzoyl)-hydrazide]
EC50 [1]: > 50000 nM
fold induction at 3.3 µM [1]: 1
Z3 assay Rel Max FI ([1]; HEK-293 Z3 cells): 0.02
EC50 [2]: 20 nM
13B3 assay Rel Max FI [2]: 0.20
fold induction at 3.3 µM [2]: 3

COc1cccc(C(=O)NN(C(=O)c2cc(F)ccc2F)C(C)(C)C)c1C [RG-100603]
Fold Induction, Z3 Assay, 33 uM ([1]; average of two wells): 453
Fold Induction, 13B3 Assay, 33 uM ([2]; average of two wells): 570

CC(=O)Oc1cccc(C(=O)NN(C(=O)c2cc(C)cc(C)c2)C(C)(C)C)c1C [RG-100749]
Fold Induction, Z3 Assay, 3.3 uM ([1]; average of two wells): 874
Fold Induction, Z3 Assay, 33 uM ([1]; average of two wells): 145
Z3 assay Rel Max FI ([1]; HEK-293 Z3 cells): 0.951
EC50 [1, 3]: 2690 nM
Fold Induction, 13B3 Assay, 33 uM ([2]; average of two wells): 288
